We go through four compounds from paper PMC7766124, “Improved Cell Selectivity of Pseudin-2 via Substitution in the Leucine-Zipper Motif: In Vitro and In Vivo Antifungal Activity” (Antibiotics, 2020).

Converted amounts (≈) assume the structure as drawn. Where two headings read alike, the source gives them in different places. No end group written: not given here. Some results are limits rather than exact numbers.

The subject of data set [1] is A. fumigatus. It counts as cell-based, A. fumigatus (KCTC 6145). The following applies: 36 h. The source says: (§1) Aspergillus flavus (KCTC 6905), A. fumigatus (KCTC 6145), Fusarium moniliforme (KCTC 6149), F. oxysporum (KCTC 16909), C. albicans (KCTC 7270), C. krusei (CCARM 14017), C. parapsilosis (CCARM 14016), C. tropicalis (KCTC 7221), and T. beigelii (KCTC 7707) were obtained from the Korea Collection for Type Cultures (KCTC) and Culture Collection of Antimicrobial Resistant Microbes (CCARM). Mold and yeast fungi were pre-grown on potato dextrose (PD) and yeast extract peptone dextrose (YPD) agars, respectively.
(§2) Antifungal activity of peptides was performed by microtiter plate assays. Fungal conidia from four-day-old molds were collected using 0.08% Triton X-100 (v/v), and pre-cultivated yeast cells were adjusted to 2 × 10^4 spores/mL in 10 mM sodium phosphate buffer (SP, pH 7.2) or 10 mM 2-(N-morpholino)ethanesulfonic acid (MES) buffer (pH 5.5) supplemented with 20% culture medium, followed by addition to peptide solutions (0.25, 0.5, 1, 1.5, 2, 4, 6, 8, 12, 16, 32, 48, and 64 µM) in 96-well microtiter plates. After incubation for 36 h at 28 °C, the hyphal growth of conidia and the proliferation of yeast cells were observed under a light microscope. All assays were performed in triplicate. The MIC values were defined as the lowest concentration of samples that reduced fungal germination (for mold) or cell proliferation (for yeast) by more than 90% [34].

Data set [2] deals with C. parapsilosis. It counts as cell-based, C. parapsilosis (CCARM 14016). The following applies: 36 h.
From the text: as §1, §2

Data set [3] is described as follows: Calcein leakage from fungus-mimic artificial vesicles. Conditions: fungus-mimic PC/PE/PI/ergosterol vesicles, 20 μM lipid; peptide/lipid molar ratio 0.05; 100% = 0.03% Triton X-100; three independent experiments. The procedure:
(§3) The permeability of peptides in calcein-entrapped artificial liposomes was assayed by measuring calcein leakage. The desired mixtures of lipids (PC/PE/PI/ergosterol, 5:4:1:2 and PC/CH/SM, 2:1:1, weight ratio) were dissolved in chloroform at 10 mg/mL, dried in a glass tube under nitrogen, and then lyophilized overnight to remove residual solvent. The dried lipid films were resuspended in 1 mL of dye solution (80 mM calcein, 10 mM HEPES buffer, pH 7.2) at 50 °C and vortexed, followed by freeze-thawing for nine cycles and extrusion with polycarbonate filters (0.2-μm pore-size) using an Avanti Mini-Extruder (Avanti Polar Lipids Inc., Alabaster, AL, USA). Free calcein was removed using PD-10 desalting columns (GE Healthcare Life Science, Seoul, Korea). Calcein-entrapped vesicles of 20 μM lipids were incubated with peptides at concentrations of […], 0.02, 0.05, and 0.1 molar ratio (peptide/lipid) and the fluorescence was assessed at 480 (Ex) and 520 (Em) nm using a microtiter SpectraMax M5 reader (Molecular Devices). Complete (100%) release was achieved by the addition of 0.03% Triton X-100 (v/v).

Data set [4] deals with C. krusei. It is filed as cell-based, C. krusei (CCARM 14017). The following applies: 36 h.
From the text: as §1, §2

Data set [5] deals with C. tropicalis. It counts as cell-based, C. tropicalis (KCTC 7221). The following applies: 36 h.
From the text: as §1, §2

The subject of data set [6] is F. moniliforme. It is filed as cell-based, Fusarium moniliforme (KCTC 6149). Conditions: 36 h.
From the text: as §1, §2

The subject of data set [7] is C. albicans. It is filed as cell-based, C. albicans (KCTC 7270). The following applies: 36 h.
From the text: as §1, §2

For data set [8], the system named is F. oxysporum. It counts as cell-based, F. oxysporum (KCTC 16909). The following applies: 36 h.
From the text: as §1, §2

Data set [9] concerns T. beigelii. It counts as cell-based, T. beigelii (KCTC 7707). The following applies: 36 h.
From the text: as §1, §2

Data set [10] deals with A. flavus. It is filed as cell-based, Aspergillus flavus (KCTC 6905). The following applies: 36 h.
From the text: as §1, §2

The test system of data set [11] is HaCaT cells. The data set is described as follows: Cytotoxicity, XTT cell viability assay. It counts as cell-based, human. The following applies: peptides 4-256 µM, 24 h incubation, triplicate. As to the method: Cell viability was assessed using sodium XTT assays. HaCaT (human immortalized keratinocytes) cells were cultured in Dulbecco’s modified Eagle medium (DMEM; ThermoFisher Scientific, Gibco, Waltman, MA, USA) supplemented with antibiotic-antimycotic (ThermoFisher Scientific, Gibco) and 10% fetal bovine serum (FBS; ThermoFisher Scientific, Gibco) at 37 °C in a humidified chamber containing 5% CO2. The cells were seeded at 5 × 10^4 cells/mL in flat-bottom 96-well microtiter plates in triplicate. Twenty-four hours later, cells were treated with two-fold serial dilutions of peptides (ranging from 256 to 4 µM) in medium, and the cells were further incubated for 24 h. Next, activated-XTT solution was added to each well and the plates were additionally incubated for 4 h. Absorbance in each well was measured at wavelengths of 480 and 650 nm using a microtiter SpectraMax M5 reader (Molecular Devices, Sunnyvale, CA, USA). Triton X-100 (0.1% v/v) and DMEM were used as controls for survival.
A general note: Tetrazolium assays rely on reduction of a dye to a coloured formazan, in cell work by metabolically active cells.

Data set [12] can be described thus: Calcein leakage from mammalian-mimic artificial vesicles. Conditions: mammalian-mimic PC/CH/SM vesicles, 20 μM lipid; peptide/lipid molar ratio 0.1; 100% = 0.03% Triton X-100. The procedure:
as §3

For data set [13], the system named is C. tropicalis cells. Nature of the data set: SYTOX Green uptake (membrane permeability). It counts as cell-based. The following applies: SP buffer pH 7.2, 0.5 μM SYTOX Green, peptides 1-64 µM, monitored 30 min. The procedure: C. tropicalis cells pre-grown at 28 °C were washed and suspended (2 × 10^6 cells/mL) in SP buffer (pH 7.2). The cells were pre-incubated with SYTOX Green (final concentration of 0.5 μM) for 15 min in the dark, followed by adding two-fold serial dilutions of peptides at concentrations of 1 to 64 µM. The fluorescence intensity was monitored for 30 min at 485 (Ex) and 520 (Em) nm using a microtiter SpectraMax M5 reader (Molecular Devices, San Jose, CA, USA).

Data set [14] deals with mouse erythrocytes. The data set is described as follows: Hemolytic assay. It is filed as cell-based. The following applies: 64 µM peptide, 8% (v/v) mRBCs, 37 °C, 2 h (method) / 4 h (figure legend). The procedure:
Mouse blood was collected into sodium heparin-coated tubes (BD Vacutainer; BD Diagnostics, Oxford, UK). The mRBCs were obtained by centrifugation (800× g, 10 min) and washing with PBS. The washed mRBCs were added to a final concentration of 8% (v/v) in 64 µM peptide solution, followed by incubation for 2 h at 37 °C. After centrifugation, each tube was digitally recorded.

Where [15] appears, read: 10 mM sodium phosphate buffer pH 7.2 with 20% culture medium, 28 °C, triplicate.
[16] abbreviates: acidic: 10 mM MES buffer pH 5.5 with 20% culture medium (value in parentheses), 28 °C, triplicate.

Regarding GLNAAKKVFQGAHEAIKLINNHVQ-NH2 [P2-LZ1], the MIC in data set [1] (pH 5.5) is listed as 16 µM; in [1] (pH 7.2) it was 64 µM; in [2] (pH 5.5), > 64 (>64) µM; in data set [2] (pH 7.2) it was > 64 (>64) µM; in [4] (pH 5.5), 8 (8) µM; in [4] (pH 7.2), 8 (8) µM. The MIC in data set [5] (pH 5.5) is given as 2 µM; in data set [5] (pH 7.2) it was 4 µM; in [6] (pH 5.5), 48 (48) µM; in data set [6] (pH 7.2) it was 48 (48) µM; in data set [7] (pH 5.5) it was 32 µM; in [7] (pH 7.2), 8 µM. Also, the MIC in data set [8] (pH 5.5) is listed as 12 µM; in data set [8] (pH 7.2), 4 µM; in [9] (pH 5.5), 2 (2) µM; in data set [9] (pH 7.2), 2 (2) µM; in data set [10] (pH 5.5), 12 µM; in data set [10] (pH 7.2), 64 µM. In addition, in [3], the leakage of calcein was 81.8%. Besides, in [11], the “cytotoxic effects against HaCaT cells” value is “significant, concentration-dependent cytotoxic effects”.
As for `CC[C@H](C)[C@H](NC(=O)CN)C(=O)NCC(=O)N[C@@H](C)C(=O)N[C@H](C(=O)N[C@@H](CC(C)C)C(=O)N[C@@H](CCCCN)C(=O)N[C@H](C(=O)N[C@@H](CC(C)C)C(=O)N[C@H](C(=O)N[C@H](C(=O)NCC(=O)N[C@@H](CC(C)C)C(=O)N1CCC[C@H]1C(=O)N[C@@H](C)C(=O)N[C@@H](CC(C)C)C(=O)N[C@H](C(=O)N[C@@H](CO)C(=O)N[C@@H](Cc1c[nH]c2ccccc12)C(=O)N[C@H](C(=O)N[C@@H](CCCCN)C(=O)N[C@@H](CCCNC(=N)N)C(=O)N[C@@H](CCCCN)C(=O)N[C@@H](CCCNC(=N)N)C(=O)N[C@@H](CCC(N)=O)C(=O)N[C@@H](CCC(N)=O)C(N)=O)[C@@H](C)CC)[C@@H](C)CC)[C@@H](C)O)[C@@H](C)O)C(C)C)C(C)C` [Melittin, reference compound], the MIC in data set [1] (setting [15]) is given as 6 µM (≈ 17.1 µg/mL); in data set [1] (setting [16]), 4 µM (≈ 11.4 µg/mL); in data set [2] (setting [15]), 16 µM (≈ 45.5 µg/mL); in data set [2] (setting [16]) it was 8 µM (≈ 22.8 µg/mL); in [4] (setting [15]), 8 µM (≈ 22.8 µg/mL); in data set [4] (setting [16]), 4 µM (≈ 11.4 µg/mL). The MIC in data set [5] (setting [15]) is 16 µM (≈ 45.5 µg/mL); in [5] (setting [16]) it was 8 µM (≈ 22.8 µg/mL); in data set [6] (setting [15]), 32 (32) µM; in data set [6] (setting [16]) it was 32 (32) µM; in [7] (10 mM sodium phosphate buffer pH 7.2 with 20% culture medium, 28 °C, >90% reduction of proliferation, triplicate) it was 32 µM (≈ 91.1 µg/mL); in data set [7] (setting [16]), 8 µM (≈ 22.8 µg/mL). Further, the MIC in [8] (setting [15]) is given as 64 µM (≈ 182 µg/mL); in data set [8] (setting [16]) it was 32 µM (≈ 91.1 µg/mL); in data set [9] (setting [15]), 2 (2) µM; in [9] (setting [16]) it was 2 (2) µM; in [10] (10 mM sodium phosphate buffer pH 7.2 with 20% culture medium, 28 °C, >90% reduction of germination, triplicate), 6 µM (≈ 17.1 µg/mL); in data set [10] (setting [16]), 4 µM (≈ 11.4 µg/mL). Further, the calcein efflux result in data set [12] is “significant dye leakage”. Also, the leakage of calcein in data set [3] is 84.1%. Also, in data set [13], the “SYTOX Green fluorescence intensity” value is “gradual, concentration-dependent increases in fluorescence intensity”. In addition, the “hemolytic effects (hemoglobin release, by visualization)” value in data set [14] was “severe hemolysis”.
For the compound GLNALKKVFQGAHEAIKLANNHVQ-NH2 [P2-LZ3], the MIC in [1] (pH 5.5) is listed as 16 µM; in data set [1] (pH 7.2), 64 µM; in data set [2] (pH 5.5), >64 (>64) µM; in [2] (pH 7.2), >64 (>64) µM; in data set [4] (pH 5.5) it was 8 (8) µM; in [4] (pH 7.2), 8 (8) µM. For the same compound, the MIC is reported as 2 (2) µM in data set [5] (pH 5.5); 2 (2) µM in data set [5] (pH 7.2); 32 µM in data set [6] (pH 5.5); 64 µM in data set [6] (pH 7.2); 16 µM in [7] (pH 5.5); 8 µM in data set [7] (pH 7.2). Also, the MIC in [8] (pH 5.5) is given as 16 µM; in [8] (pH 7.2) it was 4 µM; in [9] (pH 5.5) it was 2 µM; in data set [9] (pH 7.2) it was 6 µM; in [10] (pH 5.5) it was 32 µM; in data set [10] (pH 7.2), 64 µM. Moreover, the leakage of calcein in data set [3] is reported as 48.3%.
As to GANALKKVAQGIHEAIKLINNHVQ-NH2 [P2-LZ2], the MIC in [1] (pH 5.5) was 16 µM; in data set [1] (pH 7.2), 24 µM; in [2] (pH 5.5) it was 64 µM; in data set [2] (pH 7.2) it was 48 µM; in data set [4] (pH 5.5), 4 µM; in data set [4] (pH 7.2) it was 6 µM. Also, the MIC in data set [5] (pH 5.5) was determined as 1.5 µM; in [5] (pH 7.2) it was 2 µM; in data set [6] (pH 5.5) it was 16 µM; in data set [6] (pH 7.2), 24 µM; in [7] (pH 5.5), 32 µM; in data set [7] (pH 7.2), 4 µM. The MIC in data set [8] (pH 5.5) is 16 µM; in data set [8] (pH 7.2), 2 µM; in data set [9] (pH 5.5), 2 (2) µM; in data set [9] (pH 7.2), 2 (2) µM; in data set [10] (pH 5.5) it was 12 µM; in data set [10] (pH 7.2) it was 32 µM. In data set [3], the leakage of calcein was 77.0%.
